US11578300B2, “Test apparatus” (Hitachi High-Tech Corporation, priority 2014, dated 2023)
Values after ≈ are worked out from the molar mass of the structure shown.

Legend:
Assay type in all cases: cell-based
[1] = test system: E. coli (ATCC25922); experiment: susceptibility test with respect to ampicillin by microscopic observation (bacteriological test apparatus)
Protocol: After the bacterial suspension is introduced into the culture plate 18, the bacterial suspension is in a state of being mixed with the culture liquid which is included in each of the wells, and the temperature controller 16 is set to a temperature of approximately 35° C. Culture is performed by performing incubation such that the temperature of each of the wells in the culture plate 18 is in the vicinity of the set temperature. Then, while performing the incubation, the bacteria included in each of the wells are monitored through the microscopic observation optical system. The microscopic observation (monitoring) may be performed for a set period of time from the start of the incubation till the end thereof by continuously monitoring the state of bacterial growth. Otherwise, a suitable time may be set and monitoring is performed every set time thereof so as to be able to be compared with the monitored result at the time of starting the incubation. In addition, similar to the bacteriological test apparatus in the related art, the turbidity of each of the wells may be measured through the turbidity measurement optical system while incubating the culture plate 18. The measured result may be compared with the monitored result of the microscopic observation optical system. FIGS. 16A to 18C are diagrams illustrating results of a susceptibility test with respect to ampicillin of E. coli (ATCC25922) performed by using the bacteriological test apparatus of the present invention. FIGS. 16A to 18C are images obtained by culturing the E. coli in Mueller-Hinton culture mediums respectively containing ampicillin having the concentrations of 0 μg/mL, 2 μg/mL, and 16 μg/mL, performing image processing of a line extracting filter and the like onto microscopic images respectively captured after (a) 0 hours, (b) 3 hours, and (c) 24 hours from the start of culture, and performing binarization. The target objects appearing black in FIGS. 16A to 18C are the E. coli. […] FIG. 19 is a graph obtained by calculating the areas of the E. coli in the images of FIGS. 16A to 18C and plotting the areas thereof periodically. […] In this manner, it was possible to obtain the MIC with respect to the ampicillin of the used E. coli based on the graph achieved by monitoring the change in the areas of the bacteria in the images. It could be confirmed that the antimicrobial susceptibility test which requires overnight culture in the related art could be carried out in a short time by using the bacteriological test apparatus of the present invention.

[2] = test system: E coli (ATCC35218); experiment: susceptibility test of E coli treated with cefazolin by microscopic observation (bacteriological test apparatus); details: for growth of the E coli in images / bacterial number in a microscopic image: after three hours; for bacterial number in a microscopic image: FIG. 22A; for average value of the areas per one bacterium: FIG. 22C
Protocol: After the bacterial suspension is introduced into the culture plate 18, the bacterial suspension is in a state of being mixed with the culture liquid which is included in each of the wells, and the temperature controller 16 is set to a temperature of approximately 35° C. Culture is performed by performing incubation such that the temperature of each of the wells in the culture plate 18 is in the vicinity of the set temperature. Then, while performing the incubation, the bacteria included in each of the wells are monitored through the microscopic observation optical system. The microscopic observation (monitoring) may be performed for a set period of time from the start of the incubation till the end thereof by continuously monitoring the state of bacterial growth. Otherwise, a suitable time may be set and monitoring is performed every set time thereof so as to be able to be compared with the monitored result at the time of starting the incubation. In addition, similar to the bacteriological test apparatus in the related art, the turbidity of each of the wells may be measured through the turbidity measurement optical system while incubating the culture plate 18. The measured result may be compared with the monitored result of the microscopic observation optical system. FIGS. 20A-20D and 21A-21D are diagrams illustrating results of a susceptibility test of E coli (ATCC35218) treated with cefazolin performed by using the bacteriological test apparatus of the present invention. FIGS. 20A to 20D are microscopic images which are obtained by culturing the E. coli in Mueller-Hinton culture mediums respectively containing cefazolin having concentrations of 0 μg/mL, 0.5 μg/mL, 1 μg/mL, and 2 μg/mL, and captured after three hours from the start of culture. The target objects vaguely appearing in the images are the bacteria. FIGS. 21A to 21D are images obtained by respectively performing image processing onto the images of FIGS. […], performing edge detection, and performing binarization thereafter. The target objects appearing black in FIGS. 21A-21D are the E. coli. […] FIGS. 22A-22F are graphs obtained by extracting the feature values of the bacteria from the image of FIGS. 20A-20D. FIG. 22A is a graph illustrating the bacterial number in a microscopic image. […] FIG. 22B is a graph illustrating the areas of the bacteria in the microscopic image. FIG. 22C is a graph illustrating the average values of the areas per one bacterium obtained based on FIGS. 22A and 22B. […] As it also could be confirmed in FIGS. 21A-21D, the facts thereof indicate that the bacteria are elongated due to effect of cefazolin. FIGS. 22D to 22F are graphs respectively showing the perimeter length, the circularity, and the solidity (an index showing how the shape is close to a circle) per one bacterium. As the results of the elongated bacteria, it could be confirmed that the perimeter length increased in FIG. 22D, the circularity defined through […] was lowered in FIG. 22E, and the solidity defined through the area/the projection area is lowered in FIG. 22F.

[3] = test system: Enterococcus faecalis (ATCC29212); experiment: susceptibility test with respect to levofloxacin by microscopic observation (bacteriological test apparatus); details: Mueller-Hinton culture medium, from areas of bacteria in images over time, read-out: minimum inhibitory concentration (MIC)
Protocol: After the bacterial suspension is introduced into the culture plate 18, the bacterial suspension is in a state of being mixed with the culture liquid which is included in each of the wells, and the temperature controller 16 is set to a temperature of approximately 35° C. Culture is performed by performing incubation such that the temperature of each of the wells in the culture plate 18 is in the vicinity of the set temperature. Then, while performing the incubation, the bacteria included in each of the wells are monitored through the microscopic observation optical system. The microscopic observation (monitoring) may be performed for a set period of time from the start of the incubation till the end thereof by continuously monitoring the state of bacterial growth. Otherwise, a suitable time may be set and monitoring is performed every set time thereof so as to be able to be compared with the monitored result at the time of starting the incubation. In addition, similar to the bacteriological test apparatus in the related art, the turbidity of each of the wells may be measured through the turbidity measurement optical system while incubating the culture plate 18. The measured result may be compared with the monitored result of the microscopic observation optical system. FIGS. 10A to 13D are diagrams illustrating the results obtained by applying the present invention. […]

## CC1(C)S[C@@H]2[C@H](NC(=O)[C@H](N)c3ccccc3)C(=O)N2[C@H]1C(=O)O [ampicillin]
[1]; ampicillin 2 μg/mL, FIG. 19 graph (ii)
  areas of the E. coli in the images: increased with the lapse of time
[1]; ampicillin 2 μg/mL, after 24 hours, FIG. 17C
  growth of the E. coli in images: grew after 24 hours
[1]; ampicillin 2 μg/mL, after three hours, FIG. 17B
  shape of the E. coli in images: elongated states
[1]; ampicillin 16 μg/mL, FIG. 19 graph (iii)
  areas of the E. coli in the images: seldom increased
[1]; ampicillin 16 μg/mL, FIGS. 18A-18C
  growth of the E. coli in images: did not grow without being elongated

## Cc1nnc(SCC2=C(C(=O)O)N3C(=O)[C@@H](NC(=O)Cn4cnnn4)[C@H]3SC2)s1 [cefazolin]
[2]; cefazolin 0.5 μg/mL, FIG. 21B
  growth of the E coli in images: grew after three hours
[2]; cefazolin 0.5 μg/mL
  bacterial number in a microscopic image: increased through growth
[2]; cefazolin 0.5 μg/mL, compared to no antibacterial agent
  average value of the areas per one bacterium: the area increased
[2]; cefazolin 1 μg/mL
  average value of the areas per one bacterium: further increased
  bacterial number in a microscopic image: did not quite grow
[2]; cefazolin 1 μg/mL, FIG. 21C
  growth of the E coli in images: did not quite grow after three hours and was elongated
[2]; cefazolin 2 μg/mL
  average value of the areas per one bacterium: further increased
  bacterial number in a microscopic image: did not quite grow
[2]; cefazolin 2 μg/mL, FIG. 21D
  growth of the E coli in images: did not quite grow after three hours and was elongated
[2]; elongated bacteria, concentration not given, FIG. 22D
  perimeter length per one bacterium: increased
[2]; elongated bacteria, concentration not given, FIG. 22E
  circularity per one bacterium: lowered
[2]; elongated bacteria, concentration not given, FIG. 22F
  solidity per one bacterium: lowered

## C[C@H]1COc2c(N3CCN(C)CC3)c(F)cc3c(=O)c(C(=O)O)cn1c23 [levofloxacin]
[3]
  MIC: 1 µg/mL (≈ 2.77 µM)
